Nc1cc(C(=O)O)ccc1C(=O)O
solubility (mole fraction)
Conditions	in ethanol	in isopentanol	in isopropanol	in methanol	in n-butanol	in n-propanol	in sec-butanol	in tert-butanol
303.15 K	0.0349	0.00536	0.0211	0.0685	0.00721	–	0.00989	0.0216
303.25 K	–	–	–	–	–	0.0137	–	–
308.15 K	0.0383	0.00583	0.0236	–	0.00854	–	0.0119	0.0237
308.75 K	–	–	–	–	–	0.0165	–	–
313.15 K	0.0422	0.00643	–	0.0794	0.0098	–	0.0139	0.0268
313.75 K	–	–	–	–	–	0.0193	–	–
318.15 K	0.0461	–	0.0293	0.0853	0.0112	0.0223	–	0.0293
323.15 K	0.051	0.00764	0.0326	0.0917	0.0131	0.0256	0.0192	0.0315
328.15 K	0.0552	–	–	0.0982	–	0.0293	0.0222	0.0351
333.15 K	0.06	0.00895	–	0.105	0.0168	0.0334	–	0.0375
338.15 K	0.0655	0.00972	0.0441	0.112	0.0189	0.0392	0.0297	0.0421

Source: BigSolDB 2.1
